Laboratory results from ChEMBL document CHEMBL4043100, “Antitrichomonal activity of δ opioid receptor antagonists, 7-benzylidenenaltrexone derivatives” (Bioorg Med Chem, 2017).
pIC50, pKi: −log10 of the molar value. Converted amounts (≈) assume the structure as drawn.

Assays:
Trichomonas vaginalis = assay: Antimicrobial activity against Trichomonas vaginalis after 48 hrs by neutral red staining based invert microscopic analysis; assay type: functional
Mu-type opioid receptor = Mu-type opioid receptor (Homo sapiens, UniProt P35372); assay: Displacement of [3H]DAMGO from human mu opioid receptor expressed in CHO cell membranes by microbeta scintillation counting analysis; details: for pKi: read-out: Ki
Chain of Mu-type opioid receptor (P35372 whole entry): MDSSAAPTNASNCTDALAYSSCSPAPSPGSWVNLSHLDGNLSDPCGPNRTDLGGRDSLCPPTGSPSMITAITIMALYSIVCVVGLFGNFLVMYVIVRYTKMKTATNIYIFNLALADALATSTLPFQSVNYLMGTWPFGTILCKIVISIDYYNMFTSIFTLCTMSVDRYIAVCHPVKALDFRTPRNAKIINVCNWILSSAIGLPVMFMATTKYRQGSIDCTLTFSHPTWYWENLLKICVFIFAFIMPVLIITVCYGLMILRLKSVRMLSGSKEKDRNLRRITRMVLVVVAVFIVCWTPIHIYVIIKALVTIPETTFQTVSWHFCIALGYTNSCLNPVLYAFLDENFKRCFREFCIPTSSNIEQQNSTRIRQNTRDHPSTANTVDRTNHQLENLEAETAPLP

[1] = target: Delta-type opioid receptor (Homo sapiens, UniProt P41143); assay: Displacement of [3H]DPDPE from human delta opioid receptor expressed in CHO cell membranes by microbeta scintillation counting analysis; details: for pKi: read-out: Ki
Chain of Delta-type opioid receptor (P41143 whole entry): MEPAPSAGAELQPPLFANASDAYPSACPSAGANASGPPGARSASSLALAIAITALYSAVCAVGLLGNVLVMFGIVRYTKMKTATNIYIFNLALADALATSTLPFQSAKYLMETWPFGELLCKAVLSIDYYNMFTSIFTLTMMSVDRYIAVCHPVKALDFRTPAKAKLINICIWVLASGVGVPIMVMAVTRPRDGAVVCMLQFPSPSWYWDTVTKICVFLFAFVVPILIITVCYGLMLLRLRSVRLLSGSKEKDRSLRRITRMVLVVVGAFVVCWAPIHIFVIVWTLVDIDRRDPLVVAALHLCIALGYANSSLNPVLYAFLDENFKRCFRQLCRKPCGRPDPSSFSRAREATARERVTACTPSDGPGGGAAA

[2] = target: Kappa-type opioid receptor (Homo sapiens, UniProt P41145); assay: Displacement of [3H]U-69,593 from human kappa opioid receptor expressed in CHO cell membranes by microbeta scintillation counting analysis; details: for pKi: read-out: Ki
Chain of Kappa-type opioid receptor (P41145 whole entry): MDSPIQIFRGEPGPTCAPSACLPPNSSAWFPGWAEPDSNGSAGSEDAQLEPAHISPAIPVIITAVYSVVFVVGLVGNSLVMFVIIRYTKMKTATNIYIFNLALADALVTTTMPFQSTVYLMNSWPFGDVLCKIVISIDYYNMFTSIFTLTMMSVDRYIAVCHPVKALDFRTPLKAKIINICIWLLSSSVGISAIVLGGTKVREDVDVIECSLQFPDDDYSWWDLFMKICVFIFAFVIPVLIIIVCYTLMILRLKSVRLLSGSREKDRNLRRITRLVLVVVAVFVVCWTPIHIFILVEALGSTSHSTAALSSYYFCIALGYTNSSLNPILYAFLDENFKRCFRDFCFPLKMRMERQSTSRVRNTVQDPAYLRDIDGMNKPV

[3] = Antimicrobial activity against Tritrichomonas mobilensis after 48 hrs by neutral red staining based invert microscopic analysis; assay type: functional

With `CN1CC[C@]23Cc4nc5ccccc5cc4C[C@@]2(O)[C@H]1Cc1ccc(O)cc13` as the molecule, how does the MIC (Trichomonas vaginalis) read?
The MIC was 80 µM (≈ 29.8 µg/mL).

With `O=C1/C(=C/c2ccc(F)cc2)C[C@@]2(O)[C@H]3Cc4ccc(O)c5c4[C@@]2(CCN3CC2CC2)[C@H]1O5` as the molecule, how does the pIC50 (Trichomonas vaginalis) read?
Its pIC50 is 4.89.

And the MIC (Trichomonas vaginalis)?
The MIC was 20 µM (≈ 8.95 µg/mL).

And the pKi (Mu-type opioid receptor)?
The pKi was 7.68.

What about the pKi [1] of the same molecule?
Its pKi is 7.46.

And the pKi [2]?
Its pKi is 6.97.

Which results are given for `COc1ccc(/C=C2\C[C@@]3(O)[C@H]4Cc5ccc(O)c6c5[C@@]3(CCN4CC3CC3)[C@@H](O6)C2=O)cc1`?
pIC50 (Trichomonas vaginalis): 4.85; MIC (Trichomonas vaginalis): 20 µM (≈ 9.19 µg/mL); pKi (Mu-type opioid receptor): 8.29; pKi [1]: 8.74; pKi [2]: 7.56

Which MIC (Trichomonas vaginalis) does the source give for `CC1(C)SSC(C)(C)[C@H](NC(=O)[C@@H](N)Cc2ccc(O)cc2)C(=O)NCC(=O)N[C@@H](Cc2ccccc2)C(=O)N[C@@H]1C(=O)O` here?
The MIC was greater than 320 µM.

What does the source list for `CN(C)c1ccc(/C=C2\C[C@@]3(O)[C@H]4Cc5ccc(O)c6c5[C@@]3(CCN4CC3CC3)[C@@H](O6)C2=O)cc1`?
pIC50 (Trichomonas vaginalis): 4.88; MIC (Trichomonas vaginalis): 20 µM (≈ 9.45 µg/mL); pKi (Mu-type opioid receptor): 7.76; pKi [1]: 8.43; pKi [2]: 7.54

Which MIC (Trichomonas vaginalis) does the source give for `O=C1C(Cc2ccccc2)C[C@@]2(O)[C@H]3Cc4ccc(O)c5c4[C@@]2(CCN3CC2CC2)[C@H]1O5` (some centres not stated) here?
Its MIC is 80 µM (≈ 34.5 µg/mL).

With `O=C1/C(=C/c2ccc(C(F)(F)F)cc2)C[C@@]2(O)[C@H]3Cc4ccc(O)c5c4[C@@]2(CCN3CC2CC2)[C@H]1O5` as the molecule, how does the pIC50 (Trichomonas vaginalis) read?
The pIC50 was 4.86.

What about the MIC (Trichomonas vaginalis) of the same molecule?
The MIC was 20 µM (≈ 9.95 µg/mL).

And the pKi (Mu-type opioid receptor)?
The pKi was 6.72.

What about the pKi [1] of the same molecule?
Its pKi is 7.08.

And the pKi [2]?
The pKi was 6.75.

Which MIC (Trichomonas vaginalis) does the source give for `O=C1/C(=C/c2ccccc2Cl)C[C@@]2(O)[C@H]3Cc4ccc(O)c5c4[C@@]2(CCN3CC2CC2)[C@H]1O5` here?
Its MIC is greater than 320 µM.

With `O=C1/C(=C/c2cccs2)C[C@@]2(O)[C@H]3Cc4ccc(O)c5c4[C@@]2(CCN3CC2CC2)[C@H]1O5` as the molecule, how does the pIC50 (Trichomonas vaginalis) read?
The pIC50 was 4.67.

And the MIC (Trichomonas vaginalis)?
The MIC was 40 µM (≈ 17.4 µg/mL).

Which MIC (Trichomonas vaginalis) does the source give for `O=C1C(Cc2ccc(F)cc2)C[C@@]2(O)[C@H]3Cc4ccc(O)c5c4[C@@]2(CCN3CC2CC2)[C@H]1O5` (some centres not stated) here?
Its MIC is greater than 320 µM.

For `COc1ccc(/C=C2\C[C@@]3(O)[C@H]4Cc5ccc(OC)c6c5[C@@]3(CCN4CC3CC3)[C@@H](O6)C2=O)cc1`, which MIC (Trichomonas vaginalis) is on record?
The MIC was 80 µM (≈ 37.9 µg/mL).

What does the source list for `O=C1/C(=C/c2ccc(Cl)cc2)C[C@@]2(O)[C@H]3Cc4ccc(O)c5c4[C@@]2(CCN3CC2CC2)[C@H]1O5`?
pIC50 (Trichomonas vaginalis): 4.90; MIC (Trichomonas vaginalis): 20 µM (≈ 9.28 µg/mL); pKi (Mu-type opioid receptor): 8.21; pKi [1]: 8.09; pKi [2]: 7.10

What does the source list for `O=C1/C(=C/c2ccc(Br)cc2)C[C@@]2(O)[C@H]3Cc4ccc(O)c5c4[C@@]2(CCN3CC2CC2)[C@H]1O5`?
pIC50 (Trichomonas vaginalis): 4.95; MIC (Trichomonas vaginalis): 20 µM (≈ 10.2 µg/mL); pKi (Mu-type opioid receptor): 8.30; pKi [1]: 8.38; pKi [2]: 7.15

With `O=C1/C(=C/c2ccccc2Br)C[C@@]2(O)[C@H]3Cc4ccc(O)c5c4[C@@]2(CCN3CC2CC2)[C@H]1O5` as the molecule, how does the MIC (Trichomonas vaginalis) read?
The MIC was 80 µM (≈ 40.7 µg/mL).

Which MIC (Trichomonas vaginalis) does the source give for `O=C1/C(=C/c2cccc(C(F)(F)F)c2)C[C@@]2(O)[C@H]3Cc4ccc(O)c5c4[C@@]2(CCN3CC2CC2)[C@H]1O5` here?
The MIC was 80 µM (≈ 39.8 µg/mL).

With `O=C1/C(=C/c2ccccc2C(F)(F)F)C[C@@]2(O)[C@H]3Cc4ccc(O)c5c4[C@@]2(CCN3CC2CC2)[C@H]1O5` as the molecule, how does the MIC (Trichomonas vaginalis) read?
The MIC was 80 µM (≈ 39.8 µg/mL).

With `O=C1/C(=C/c2cccc(F)c2)C[C@@]2(O)[C@H]3Cc4ccc(O)c5c4[C@@]2(CCN3CC2CC2)[C@H]1O5` as the molecule, how does the pIC50 (Trichomonas vaginalis) read?
Its pIC50 is 4.85.

And the MIC (Trichomonas vaginalis)?
Its MIC is 20 µM (≈ 8.95 µg/mL).

What about the pKi (Mu-type opioid receptor) of the same molecule?
Its pKi is 7.97.

What about the pKi [1] of the same molecule?
Its pKi is 8.08.

What about the pKi [2] of the same molecule?
The pKi was 7.31.

With `COc1ccc2c3c1O[C@H]1C(=O)/C(=C/c4ccc(F)cc4)C[C@@]4(O)[C@@H](C2)N(CC2CC2)CC[C@]314` as the molecule, how does the MIC (Trichomonas vaginalis) read?
Its MIC is 80 µM (≈ 36.9 µg/mL).

Which MIC (Trichomonas vaginalis) does the source give for `O=C1/C(=C/c2c(Cl)cccc2Cl)C[C@@]2(O)[C@H]3Cc4ccc(O)c5c4[C@@]2(CCN3CC2CC2)[C@H]1O5` here?
The MIC was greater than 320 µM.

For `COc1cccc(/C=C2\C[C@@]3(O)[C@H]4Cc5ccc(O)c6c5[C@@]3(CCN4CC3CC3)[C@@H](O6)C2=O)c1`, which MIC (Trichomonas vaginalis) is on record?
The MIC was 80 µM (≈ 36.8 µg/mL).

With `N#Cc1ccc(/C=C2\C[C@@]3(O)[C@H]4Cc5ccc(O)c6c5[C@@]3(CCN4CC3CC3)[C@@H](O6)C2=O)cc1` as the molecule, how does the pIC50 (Trichomonas vaginalis) read?
Its pIC50 is 4.88.

And the MIC (Trichomonas vaginalis)?
Its MIC is 20 µM (≈ 9.09 µg/mL).

What about the pKi (Mu-type opioid receptor) of the same molecule?
The pKi was 7.49.

And the pKi [1]?
Its pKi is 7.74.

And the pKi [2]?
The pKi was 6.68.

With `COc1ccccc1/C=C1\C[C@@]2(O)[C@H]3Cc4ccc(O)c5c4[C@@]2(CCN3CC2CC2)[C@@H](O5)C1=O` as the molecule, how does the MIC (Trichomonas vaginalis) read?
The MIC was greater than 320 µM.

Which MIC (Trichomonas vaginalis) does the source give for `COc1ccc(CC2C[C@@]3(O)[C@H]4Cc5ccc(O)c6c5[C@@]3(CCN4CC3CC3)[C@@H](O6)C2=O)cc1` (some centres not stated) here?
Its MIC is greater than 320 µM.

What does the source list for `COc1ccc2c3c1O[C@H]1C(=O)/C(=C/c4ccccc4)C[C@@]4(O)[C@@H](C2)N(CC2CC2)CC[C@]314`?
MIC (Trichomonas vaginalis): 80 µM (≈ 35.5 µg/mL); pKi (Mu-type opioid receptor): 6.30; pKi [1]: 7.00; pKi [2]: < 6.00

With `O=C1/C(=C/c2ccc(I)cc2)C[C@@]2(O)[C@H]3Cc4ccc(O)c5c4[C@@]2(CCN3CC2CC2)[C@H]1O5` as the molecule, how does the pIC50 (Trichomonas vaginalis) read?
The pIC50 was 4.98.

And the MIC (Trichomonas vaginalis)?
The MIC was 20 µM (≈ 11.1 µg/mL).

What about the pKi (Mu-type opioid receptor) of the same molecule?
Its pKi is 7.70.

And the pKi [1]?
Its pKi is 8.67.

And the pKi [2]?
Its pKi is 6.90.

And the MIC [3]?
The MIC was greater than 320 µM.

For `O=C1/C(=C/c2ccco2)C[C@@]2(O)[C@H]3Cc4ccc(O)c5c4[C@@]2(CCN3CC2CC2)[C@H]1O5`, which MIC (Trichomonas vaginalis) is on record?
The MIC was 160 µM (≈ 67.1 µg/mL).

What does the source list for `N#Cc1cccc(/C=C2\C[C@@]3(O)[C@H]4Cc5ccc(O)c6c5[C@@]3(CCN4CC3CC3)[C@@H](O6)C2=O)c1`?
pIC50 (Trichomonas vaginalis): 4.74; MIC (Trichomonas vaginalis): 40 µM (≈ 18.2 µg/mL)

Which MIC (Trichomonas vaginalis) does the source give for `COc1ccc2c3c1O[C@H]1C(=O)C(Cc4ccccc4)C[C@@]4(O)[C@@H](C2)N(CC2CC2)CC[C@]314` (some centres not stated) here?
The MIC was greater than 320 µM.

With `O=C1/C(=C/c2ccnc3ccccc23)C[C@@]2(O)[C@H]3Cc4ccc(O)c5c4[C@@]2(CCN3CC2CC2)[C@H]1O5` as the molecule, how does the pIC50 (Trichomonas vaginalis) read?
Its pIC50 is 4.76.

What about the MIC (Trichomonas vaginalis) of the same molecule?
The MIC was 40 µM (≈ 19.2 µg/mL).

What does the source list for `O=C1/C(=C/c2ccccc2F)C[C@@]2(O)[C@H]3Cc4ccc(O)c5c4[C@@]2(CCN3CC2CC2)[C@H]1O5`?
pIC50 (Trichomonas vaginalis): 4.73; MIC (Trichomonas vaginalis): 20 µM (≈ 8.95 µg/mL); pKi (Mu-type opioid receptor): 7.89; pKi [1]: 8.53; pKi [2]: 7.45

Which MIC (Trichomonas vaginalis) does the source give for `COC(=O)/C=C/C(=O)N[C@@H]1CC[C@@]2(O)[C@H]3Cc4ccc(O)c5c4[C@@]2(CCN3CC2CC2)[C@H]1O5` here?
Its MIC is 80 µM (≈ 36.4 µg/mL).

With `O=C1/C(=C/c2ccccc2)C[C@@]2(O)[C@H]3Cc4ccc(O)c5c4[C@@]2(CCN3CC2CC2)[C@H]1O5` [BNTX] as the molecule, how does the pIC50 (Trichomonas vaginalis) read?
Its pIC50 is 4.66.

What about the MIC (Trichomonas vaginalis) of the same molecule?
Its MIC is 40 µM (≈ 17.2 µg/mL).

And the pKi (Mu-type opioid receptor)?
The pKi was 7.96.

And the pKi [1]?
Its pKi is 8.55.

What about the pKi [2] of the same molecule?
Its pKi is 7.48.

And the MIC [3]?
The MIC was greater than 320 µM.

What does the source list for `Cc1ncc([N+](=O)[O-])n1CCO` [METRONIDAZOLE]?
pIC50 (Trichomonas vaginalis): 5.28; MIC (Trichomonas vaginalis): 10 µM (≈ 1.71 µg/mL); Ki (Mu-type opioid receptor): Not Active; Ki [1]: Not Active; Ki [2]: Not Active; MIC [3]: 2.5 µM (≈ 0.428 µg/mL)

For `CN(C(=O)/C=C/c1ccoc1)[C@@H]1CC[C@@]2(O)[C@H]3Cc4ccc(O)c5c4[C@@]2(CCN3CC2CC2)[C@H]1O5` [NALFURAFINE], which MIC (Trichomonas vaginalis) is on record?
Its MIC is 80 µM (≈ 38.1 µg/mL).

With `O=C1CC[C@@]2(O)[C@H]3Cc4ccc(O)c5c4[C@@]2(CCN3CC2CC2)[C@H]1O5` [NALTREXONE] as the molecule, how does the MIC (Trichomonas vaginalis) read?
Its MIC is 80 µM (≈ 27.3 µg/mL).

Which MIC (Trichomonas vaginalis) does the source give for `Oc1ccc2c3c1O[C@H]1c4oc5ccccc5c4C[C@@]4(O)[C@@H](C2)N(CC2CC2)CC[C@]314` [NALTRIBEN] here?
Its MIC is 80 µM (≈ 33.2 µg/mL).

Which MIC (Trichomonas vaginalis) does the source give for `Oc1ccc2c3c1O[C@H]1c4[nH]c5ccccc5c4C[C@@]4(O)[C@@H](C2)N(CC2CC2)CC[C@]314` [NALTRINDOLE] here?
Its MIC is 80 µM (≈ 33.2 µg/mL).

With `Oc1ccc2c3c1O[C@H]1c4[nH]c5c(c4C[C@@]4(O)[C@@H](C2)N(CC2CC2)CC[C@]314)C[C@@]1(O)[C@H]2Cc3ccc(O)c4c3[C@@]1(CCN2CC1CC1)[C@H]5O4` [NORBINALTORPHIMINE] as the molecule, how does the MIC (Trichomonas vaginalis) read?
Its MIC is greater than 320 µM.

With `C=CCN1C[C@H](C)N([C@H](c2ccc(C(=O)N(CC)CC)cc2)c2cccc(OC)c2)C[C@H]1C` [SNC-80] as the molecule, how does the MIC (Trichomonas vaginalis) read?
Its MIC is greater than 320 µM.

Which MIC (Trichomonas vaginalis) does the source give for H-AFEVVG-NH2 here?
The MIC was greater than 320 µM.
